Organism: Rattus norvegicus
Assay: Open TG-GATES - Regimen: Single
Type: toxicity, organism-based, Sprague-Dawley
Parameters: regimen Single, gender Male, age 6 weeks
Conditions: in vivo, po, 100 mg/kg, route gavage, dose level Low; for APTT / Bas / Eos / Fbg / Hb / Ht / Lym / MCH / MCHC / MCV / Mono / Neu / PT / Plat / RBC / Ret / WBC: tissue Blood; for KIDNEY_L / KIDNEY_R / KIDNEY_TOTAL: tissue Kidney; for LIVER: tissue Liver; for A/G / ALP / ALT / AST / BUN / CRE / Ca / Cl / DBIL / GLC / IP / K / LDH / Na / PL / RALB / TBIL / TC / TG / TP / gamma-GTP: tissue Plasma

`COc1ccc(Cl)cc1C(=O)NCCc1ccc(S(=O)(=O)NC(=O)NC2CCCCC2)cc1` [GLYBURIDE] gave a TERMINAL_BW (3 h) of 218.6 g, an APTT (3 h) of 19.3 s and a Bas (3 h) of 0%. It also gave an Eos (3 h) of 1%, a Fbg (3 h) of 215.8 mg/dL and a Hb (3 h) of 13.2 g/dL. For the same compound, the Ht (3 h) was 41%, the Lym (3 h) was 69.8% and the MCH (3 h) was 20.2 pg. It also gave an MCHC (3 h) of 32.3%, an MCV (3 h) of 62.6 fL and a Mono (3 h) of 2.8%. For the same compound, the Neu (3 h) was 25.4%, the PT (3 h) was 12.3 s and the Plat (3 h) was 125.3 x10_4/uL. For the same compound, the RBC (3 h) was 654.4 x10_4/ul, the Ret (3 h) was 8.1% and the WBC (3 h) was 93.1 x10_2/uL. It also gave a KIDNEY_L (3 h) of 0.9 g, a KIDNEY_R (3 h) of 1 g and a KIDNEY_TOTAL (3 h) of 1.9 g. It also gave an LIVER (3 h) of 9.7 g, an A/G (3 h) of 1.6 and an ALP (3 h) of 990.2 IU/L. It also gave an ALT (3 h) of 44.4 IU/L, an AST (3 h) of 69.4 IU/L and a BUN (3 h) of 12.8 mg/dL. It also gave a CRE (3 h) of 0.4 mg/dL, a Ca (3 h) of 10.7 mg/dL and a Cl (3 h) of 103 meq/L. The DBIL (3 h) was 0.1 mg/dL, the GLC (3 h) was 141 mg/dL and the IP (3 h) was 8.2 mg/dL. For the same compound, the K (3 h) was 3.7 meq/L, the LDH (3 h) was 145.6 IU/L and the Na (3 h) was 140.8 meq/L. It also gave a PL (3 h) of 174.8 mg/dL, an RALB (3 h) of 3.5 g/dL and a TBIL (3 h) of 0.2 mg/dL. The TC (3 h) was 89.8 mg/dL, the TG (3 h) was 87 mg/dL and the TP (3 h) was 5.7 g/dL. For the same compound, the gamma-GTP (3 h) was 1.4 IU/L, the TERMINAL_BW (6 h) was 214.4 g and the APTT (6 h) was 19.6 s. It also gave a Bas (6 h) of 0%, an Eos (6 h) of 0.8% and a Fbg (6 h) of 222.6 mg/dL. For the same compound, the Hb (6 h) was 13.9 g/dL, the Ht (6 h) was 42.5% and the Lym (6 h) was 76.2%. It also gave an MCH (6 h) of 20.6 pg, an MCHC (6 h) of 32.6% and an MCV (6 h) of 63.3 fL. It also gave a Mono (6 h) of 2.8%, a Neu (6 h) of 18.8% and a PT (6 h) of 12.7 s. For the same compound, the Plat (6 h) was 118.8 x10_4/uL, the RBC (6 h) was 671.8 x10_4/ul and the Ret (6 h) was 7.8%. The WBC (6 h) was 101.9 x10_2/uL, the KIDNEY_L (6 h) was 0.9 g and the KIDNEY_R (6 h) was 0.9 g. The KIDNEY_TOTAL (6 h) was 1.8 g, the LIVER (6 h) was 9.3 g and the A/G (6 h) was 1.7. It also gave an ALP (6 h) of 837 IU/L, an ALT (6 h) of 40.2 IU/L and an AST (6 h) of 67.4 IU/L. The BUN (6 h) was 13 mg/dL, the CRE (6 h) was 0.4 mg/dL and the Ca (6 h) was 10.7 mg/dL. The Cl (6 h) was 104.4 meq/L, the DBIL (6 h) was 0.098 mg/dL and the GLC (6 h) was 168.6 mg/dL. It also gave an IP (6 h) of 8.6 mg/dL, a K (6 h) of 3.8 meq/L and an LDH (6 h) of 136 IU/L. For the same compound, the Na (6 h) was 141.8 meq/L, the PL (6 h) was 145.2 mg/dL and the RALB (6 h) was 3.5 g/dL. It also gave a TBIL (6 h) of 0.2 mg/dL, a TC (6 h) of 72.2 mg/dL and a TG (6 h) of 64.8 mg/dL. The TP (6 h) was 5.6 g/dL, the gamma-GTP (6 h) was 1.2 IU/L and the TERMINAL_BW (9 h) was 211.4 g. The APTT (9 h) was 19.7 s, the Bas (9 h) was 0% and the Eos (9 h) was 1%. It also gave a Fbg (9 h) of 223.4 mg/dL, a Hb (9 h) of 13.4 g/dL and a Ht (9 h) of 41.4%. The Lym (9 h) was 79.8%, the MCH (9 h) was 20.5 pg and the MCHC (9 h) was 32.5%. For the same compound, the MCV (9 h) was 63.2 fL, the Mono (9 h) was 3% and the Neu (9 h) was 15.6%. It also gave a PT (9 h) of 12.9 s, a Plat (9 h) of 122.6 x10_4/uL and an RBC (9 h) of 654.8 x10_4/ul. The Ret (9 h) was 8.2%, the WBC (9 h) was 77.5 x10_2/uL and the KIDNEY_L (9 h) was 0.9 g. For the same compound, the KIDNEY_R (9 h) was 0.9 g, the KIDNEY_TOTAL (9 h) was 1.9 g and the LIVER (9 h) was 8.7 g. The A/G (9 h) was 1.6, the ALP (9 h) was 982.4 IU/L and the ALT (9 h) was 30.2 IU/L. For the same compound, the AST (9 h) was 69.2 IU/L, the BUN (9 h) was 12.4 mg/dL and the CRE (9 h) was 0.4 mg/dL. It also gave a Ca (9 h) of 10.3 mg/dL, a Cl (9 h) of 104.2 meq/L and a DBIL (9 h) of 0.084 mg/dL. For the same compound, the GLC (9 h) was 153.8 mg/dL, the IP (9 h) was 10.4 mg/dL and the K (9 h) was 3.4 meq/L. It also gave an LDH (9 h) of 136.6 IU/L, a Na (9 h) of 142.4 meq/L and a PL (9 h) of 143 mg/dL. The RALB (9 h) was 3.4 g/dL, the TBIL (9 h) was 0.1 mg/dL and the TC (9 h) was 79.6 mg/dL. It also gave a TG (9 h) of 42 mg/dL, a TP (9 h) of 5.6 g/dL and a gamma-GTP (9 h) of 1 IU/L. It also gave a TERMINAL_BW (24 h) of 227.7 g, an APTT (24 h) of 18.4 s and a Bas (24 h) of 0.4%. The Eos (24 h) was 1%, the Fbg (24 h) was 211.8 mg/dL and the Hb (24 h) was 13 g/dL. The Ht (24 h) was 37.6%, the Lym (24 h) was 76.8% and the MCH (24 h) was 21.7 pg. For the same compound, the MCHC (24 h) was 34.5%, the MCV (24 h) was 62.9 fL and the Mono (24 h) was 3.2%. The Neu (24 h) was 18.8%, the PT (24 h) was 13.1 s and the Plat (24 h) was 119.3 x10_4/uL. It also gave an RBC (24 h) of 599 x10_4/ul, a Ret (24 h) of 7.1% and a WBC (24 h) of 83.2 x10_2/uL. It also gave a KIDNEY_L (24 h) of 1 g, a KIDNEY_R (24 h) of 0.9 g and a KIDNEY_TOTAL (24 h) of 1.9 g. It also gave an LIVER (24 h) of 9.5 g, an A/G (24 h) of 1.7 and an ALP (24 h) of 950.8 IU/L. The ALT (24 h) was 35.4 IU/L, the AST (24 h) was 68.4 IU/L and the BUN (24 h) was 14.6 mg/dL. The CRE (24 h) was 0.4 mg/dL, the Ca (24 h) was 10.7 mg/dL and the Cl (24 h) was 103.4 meq/L. It also gave a DBIL (24 h) of 0.09 mg/dL, a GLC (24 h) of 212.4 mg/dL and an IP (24 h) of 7.9 mg/dL. For the same compound, the K (24 h) was 3.5 meq/L, the LDH (24 h) was 174.2 IU/L and the Na (24 h) was 142.2 meq/L. It also gave a PL (24 h) of 136 mg/dL, an RALB (24 h) of 3.4 g/dL and a TBIL (24 h) of 0.1 mg/dL. The TC (24 h) was 72.2 mg/dL, the TG (24 h) was 67.4 mg/dL and the TP (24 h) was 5.4 g/dL. The gamma-GTP (24 h) was 1.4 IU/L.
